The values below come from patent US20250367209A1 (SOUTHERN RESEARCH INSTITUTE, priority 2022, published 2025).

Data set [1] can be described thus: Metabolic stability in human liver microsomes. The class given is in vitro ADME. As to conditions: Table 3, read-out: ADME t1/2 (min): HLMt1/2. From the text: (§1) A computational analysis of the top five hits was then completed to assess the physical attributes of the compounds emerging from the HTS. The target profile for drug-like properties included evaluation of molecular weight (MW), total polar surface area (PSA, the surface sum of all polar atoms on the molecule), solubility, metabolic stability, and partition coefficient (LogD). In general, MW<[…] and PSA <70 Å^2 were targeted, which generally allows for blood-brain barrier (BBB) permeability. Compounds with PSA >100 A^2 are generally poor at permeating cell membranes. Solubility was targeted at >10 μM at pH 7.4 and 40-60% of compound remaining after 60 minutes of incubation in mouse or human liver microsomes (an indicator of compound stability after first-pass metabolism). LogD is the log of the ratio of concentrations of a compound in two immiscible solvents at equilibrium. Values ranging from 2-4 were targeted, typical for CNS drugs. Based on these criteria, compound no. 55 was selected as the top hit for optimization. Compound no.
In general terms: Liver microsomes are vesicles of endoplasmic reticulum, rich in cytochrome P450 enzymes.

Data set [2] is described as follows: Partition coefficient (LogD). The class given is physicochemical. As to conditions: Table 3; read-out: ADME LogD.
Source text: as §1

Data set [3] relates to primary rat neurons. Kind of data set: Modified MTT assay of Aβ toxicity in primary neurons. The class given is cell-based. As to conditions: for MTT: Table 3, Aβ toxicity in primary neurons; for Aβ toxicity / Aβ-induced membrane trafficking dysfunction, modified MTT assay: compound 0.3, 3 or 15 μM, 90-minute pretreatment, 2.5 μM Aβ, 24 hours. The source says: (§2) Primary neuron cultures: All animal procedures were approved by the Institutional Animal Care and Use Committee at the University of Alabama at Birmingham (UAB). As before (Rush, et al. (2020) Neurobiol Dis 134, 104668; Voskobiynyk, et al. (2020) eLife 9, e57354), primary rat neurons were isolated from timed-pregnant Sprague-Dawley rats. Briefly, dams were euthanized with isoflurane anesthesia asphyxiation, and hippocampal tissue was isolated from E19 embryos in Hibernate E, then digested in papain for 10 minutes at 37° C. Neurons were triturated into a single cell suspension in Neurobasal supplemented with B-27, L-Glutamine, and 10% FBS, then plated in 96-well plates coated with PDL and laminin at 30,000 neurons per well in 200 uL medium or in 24-well coated plates with or without coverslips at 50,000 per well. Cultures were maintained at 37° C. with 5% CO2. Twenty-four hours after plating (DIV1), two 50% media changes with Neurobasal plus B-27 and L-Glutamine without FBS, and 5 μM cytosine β-D-arabinofuranoside was added to prevent glial proliferation. 50% media changes were performed at DIV7 and DIV14 with serum-free supplemented Neurobasal and experiments were started at DIV19.
Aβ oligomer preparation: As before (Rush, et al. (2020) Neurobiol Dis 134, 104668), lyophilized recombinant Aβ42 was dissolved in HFIP, dried overnight, then stored at −20° C. until oligomerization. To oligomerize, Aβ was dissolved in DMSO to 1 mM, then diluted to 100 µM in PBS, then sonicated and left on ice for 24 hours. Immediately prior to use, Aβ was centrifuged at 4° C. for 10 minutes at 14,000×g. Vehicle was prepared as well in identical fashion except lacking the Aβ peptide.
Aβ toxicity assays: The modified MTT and MAP2 assays were adapted from a recent study (Rush, et al. (2020) Neurobiol Dis 134, 104668). Briefly, at DIV19, media on the neurons was reduced to […], then compound was added to final concentration of 0 μM, 0.3 μM, 3 μM, or 15 μM with even amounts of DMSO. After 90-minute pretreatment with compound, 2.5 μM Aβ was added.
The modified MTT assay was performed 24 hours after Aβ application. 100 μM MTT was applied to neurons and incubated at 37° C. for one hour. Media was removed, then replaced with 15 μL 1.6% Tween20 in PBS and incubated on a shaker at 100 rpm for 5 minutes. The Tween was then removed and transferred to a 384-well clear-bottom plate and replaced with 15 μL isopropanol. Plates were again agitated for 5 minutes at RT, then isopropanol was transferred to the 384-well plate. Absorbance was then read at 590 nm on a plate reader, with 660 nm used as a reference. The ratio of Tween soluble MTT to isopropanol soluble (Tween-insoluble) MTT was calculated for each sample, then normalized to the vehicle group average.

A short description of the next data set: Solubility. It counts as physicochemical. As to conditions: for ADME Sol (μM): Table 3.
Data set [4] in a line: Oral administration to mice, brain and plasma concentrations. It counts as in vivo. The settings on record: male CD1 mice; for presence in plasma and brain after oral administration: PO 5 mg/kg, 1, 2 and 4 hours; for brain/plasma ratio: PO 5 mg/kg. The method, then: Compounds were sent to Pharmaron to determine if they were blood-brain barrier permeable. Compounds were formulated to 1 mg/mL in 10% NMP, 60% PEG400, 30% saline, then male CD1 mice were treated PO at 5 mg/kg. Brain and plasma concentrations were measured using HPLC-MS at 1 hour, 2 hours, and 4 hours post-treatment.

Data set [5] can be described thus: Metabolic stability in mouse liver microsomes. The class given is in vitro ADME. The settings on record: mouse, liver microsomes.
The subject of data set [6] is primary rat neurons. Kind of data set: MAP2 ICC assay of Aβ-induced neurite degeneration. The class given is cell-based. As to conditions: compound 0.3, 3 or 15 μM, 90-minute pretreatment, 2.5 μM Aβ.
Source text: as §2, with “50% media changes were performed at DIV7 and DIV14 with serum-free supplemented Neurobasal and experiments were started at DIV19.” left out
For the MAP2 ICC assay, neurons were fixed in 4% PFA and 4% sucrose at 37° C. for 30 minutes, then washed 3×5 minutes in PBS. […] Intact neurite length was measured in an unbiased, automated manner using Harmony software, averaged from four images from each well. […]

Another data set has as its target Tau-SrcSH3 interaction (Homo sapiens (Human), UniProt P10636). Kind of data set: Tau-Flag PLA, Tau-SrcSH3. It counts as cell-based. The settings on record: 15 μM, HEK-293 cells. The method, then: Tau-Flag PLA for Tau-SH3 interactions: To clone the SH3 constructs, a C-terminal Flag tag was added to the Tau construct using PCR, then the Tau sequence was replaced with the desired SH3 domain using In-Fusion HD cloning kit (Takara Bio). Next, an N-terminal GST tag was added to help expression using In-Fusion, resulting in GST-SH3-Flag plasmids. As a negative control, restriction enzymes were used to remove the FynSH3 from the FynSH3 construct, resulting in GST-Flag. All sequences were confirmed with Sanger sequencing, and expression in HEK-293 cells was verified by western blot and immunocytochemistry. Plating and experimental timeline was the same as above. Cells were transfected with 125 ng of Tau-mKate2 and 500 ng SH3 plasmid with 1.5 μL Fugene. compound no. 69 was applied to final concentration 15 μM. For Tau-SH3 PLA, we used Dako Tau (1:1000) and Flag (1:1000) primary antibodies.

Where [7] appears, read: Table 3, read-out: ADME t1/2 (min): MLMt1/2.

Values after ≈ are worked out from the molar mass of the structure shown. “Also recorded” adds a separate entry of the source.

Sequence of Tau-SrcSH3 interaction (P10636 other isoform, or with tags, fused parts or gaps): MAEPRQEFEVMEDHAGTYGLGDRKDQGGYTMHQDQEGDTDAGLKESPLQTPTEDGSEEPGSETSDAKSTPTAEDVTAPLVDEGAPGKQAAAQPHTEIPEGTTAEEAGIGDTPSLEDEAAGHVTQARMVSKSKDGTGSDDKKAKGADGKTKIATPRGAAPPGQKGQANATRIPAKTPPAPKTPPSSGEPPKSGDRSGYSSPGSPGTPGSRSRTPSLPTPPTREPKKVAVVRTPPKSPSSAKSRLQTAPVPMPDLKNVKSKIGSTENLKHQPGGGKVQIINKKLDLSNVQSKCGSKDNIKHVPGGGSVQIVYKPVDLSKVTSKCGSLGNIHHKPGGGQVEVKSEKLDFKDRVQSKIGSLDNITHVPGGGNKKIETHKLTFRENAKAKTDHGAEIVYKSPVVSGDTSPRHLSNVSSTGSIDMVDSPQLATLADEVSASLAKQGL

Take `O=C(CN1C(=O)CSc2cc(F)c(F)cc21)Nc1nnc(-c2ccccn2)[nH]1` [compound no. 14, 2-(6,7-DIFLUORO-3-OXO-2H-BENZO[B][1,4]THIAZIN-4(3H)-YL)-N-(5-(PYRIDIN-2-YL)-4H-1,2,4-TRIAZOL-3-YL)ACETAMIDE]: in data set [1], the half-life amounted to 137 min. In addition, in data set [2], the logD (commonly lipophilicity at a set pH, counting ionised and neutral species) is 1.9. Also, in the data set on primary rat neurons [3], the MTT entry was “Active” and the “Aβ toxicity / Aβ-induced membrane trafficking dysfunction, modified MTT assay” value is on record as “did not ameliorate Aβ toxicity”.
For `O=C(CN1C(=O)CSc2cc(Cl)ccc21)Nc1nnc(-c2ccccn2)[nH]1` [compound no. 13, 2-(7-CHLORO-3-OXO-2H-BENZO[B][1,4]THIAZIN-4(3H)-YL)-N-(5-(PYRIDIN-2-YL)-4H-1,2,4-TRIAZOL-3-YL)ACETAMIDE] the same measures were above 120 min, 3.1, “Active” and “inhibited Aβ toxicity; also recorded: did ameliorate Aβ toxicity”.
As to `O=C(CN1C(=O)CSc2cc(F)ccc21)Nc1nnc(-c2ccccn2)[nH]1` [compound no. 12, 2-(7-FLUORO-3-oxo-2H-BENZO[B][1,4]THIAZIN-4(3H)-YL)-N-(5-(PYRIDIN-2-YL)-4H-1,2,4-TRIAZOL-3-YL)ACETAMIDE], the “ADME Sol (μM)” value in the data set “Solubility” is given as “Sol = 41 μM”. For the same compound, the “presence in plasma and brain after oral administration” value (shortened to “presence in plasma and brain”) in data set [4] was “detected in plasma, it did not cross the BBB and was not present in brain”. Besides, the half-life was above 300 min in data set [1]; 146 min in data set [5] (Table 2, read-out: MLM t1/2); 146 min in data set [5] (setting [7]). For the same compound, the logD in data set [2] was determined as 2.4. Further, the MTT result in the data set with primary rat neurons [3] is recorded as “Active”. Also, in the data set on primary rat neurons [3], the “Aβ toxicity / Aβ-induced membrane trafficking dysfunction, modified MTT assay” value is recorded as “inhibited Aβ toxicity; also recorded: did ameliorate Aβ toxicity”.
Take `O=C(CN1CCOc2ccccc21)Nc1nnc(-c2ccccn2)[nH]1` [compound 47, 2-(2,3-DIHYDRO-4H-BENZO[B][1,4]OXAZIN-4-YL)-N-(5-(PYRIDIN-2-YL)-4H-1,2,4-TRIAZOL-3-YL)ACETAMIDE]: the “ADME Sol (μM)” value in the data set “Solubility” is given as “Sol = 54 μM”. Also, the concentration in solution in the data set “Solubility” (pH 7.4, aqueous buffer, Table 2) (Solubility) came to 80.2 µM (≈ 27 µg/mL). The half-life in data set [1] turned out to be 93 min; in data set [5] (Table 2, read-out: MLM t1/2), 2 min. Further, in data set [2], the logD came to 1.8. In the data set with primary rat neurons [3], the MTT entry is “Active”.
As for `Cc1ccc2c(c1)SCC(=O)N2CC(=O)Nc1nnc(-c2ccccn2)[nH]1` [compound no. 23, 2-(7-METHYL-3-OXO-2H-BENZO[B][1,4]THIAZIN-4(3H)-YL)-N-(5-(PYRIDIN-2-YL)-4H-1,2,4-TRIAZOL-3-YL)ACETAMIDE], in “Solubility”, the “ADME Sol (μM)” value is given as “Sol = 57 μM”. Besides, in data set [1], the half-life turned out to be 133 min. Further, the logD in data set [2] came out at 2.2. In addition, in the data set on primary rat neurons [3], the MTT result is “Active” and the “Aβ toxicity / Aβ-induced membrane trafficking dysfunction, modified MTT assay” value is “inhibited Aβ toxicity; also recorded: did ameliorate Aβ toxicity”.
For the compound `O=C(CN1CCSc2ccccc21)Nc1nnc(-c2ccccn2)[nH]1` [compound no. 20, 2-(2H-BENZO[B][1,4]THIAZIN-4(3H)-YL)-N-(5-(PYRIDIN-2-YL)-4H-1,2,4-TRIAZOL-3-YL)ACETAMIDE], in “Solubility”, the “ADME Sol (μM)” value was “Sol = 14 μM”. Moreover, the brain/plasma ratio in data set [4] was determined as 0.06. The “presence in plasma and brain” value in data set [4] was “detected in both plasma and brain”. The half-life in data set [1] turned out to be 85 min; in data set [5] (setting [7]), 9 min. Further, in data set [2], the logD was 2.3. For the same compound, in the data set on primary rat neurons [3], the MTT entry was “Insoluble”.
In the case of `O=C(CCN1C(=O)CSc2ccccc21)Nc1nnc(-c2ccccn2)[nH]1` [compound no. 55], the “Aβ toxicity / Aβ-induced membrane trafficking dysfunction, modified MTT assay” value with primary rat neurons [3] is listed as “prevented Aβ-induced membrane trafficking dysfunction; also recorded: ameliorates Aβ toxicity; also recorded: inhibited Aβ toxicity”. Moreover, the “Aβ-induced neurite degeneration, MAP2 assay” value with primary rat neurons [6] is listed as “prevented Aβ-induced neurite degeneration; also recorded: ameliorates Aβ-induced neurite degeneration”.
Consider `O=C(CN1CCCc2ccccc21)Nc1nnc(-c2ccccn2)[nH]1` [compound no. 45, 2-(3,4-DIHYDROQUINOLIN-1(2H)-YL)-N-(5-(PYRIDIN-2-YL)-4H-1,2,4-TRIAZOL-3-YL)ACETAMIDE], for which the half-life in data set [1] was found to be 66 min. The pH-dependent lipophilicity (logD) in data set [2] was 2.3. For the same compound, in the data set with primary rat neurons [3], the MTT result was “Active” and the “Aβ toxicity / Aβ-induced membrane trafficking dysfunction, modified MTT assay” value is listed as “inhibited Aβ toxicity; also recorded: did ameliorate Aβ toxicity”.
For the compound `O=C(CN1CCOc2ccccc21)Nc1nnc(-c2ccccn2)[nH]1` [compound no. 69], in data set [4], the brain/plasma ratio came out at 0.067; the “presence in plasma and brain” value was “presence in both plasma and brain”. The “Tau-SrcSH3 interaction, Tau-Flag PLA” value on Tau-SrcSH3 interaction is on record as “slightly but insignificantly inhibited; also recorded: does not inhibit Tau-SrcSH3 interaction”. Further, the “Aβ toxicity / Aβ-induced membrane trafficking dysfunction, modified MTT assay” value in the data set on primary rat neurons [3] was “prevented Aβ-induced membrane trafficking dysfunction; also recorded: ameliorates Aβ toxicity; also recorded: inhibited Aβ toxicity”. For the same compound, in the data set with primary rat neurons [6], the “Aβ-induced neurite degeneration, MAP2 assay” value is “prevented; also recorded: ameliorates Aβ-induced neurite degeneration”.
